Laboratory results published in US20200071361A1, “ENGINEERED ANTIMICROBIAL AMPHIPHILIC PEPTIDES AND METHODS OF USE” (priority 2017, published 2020).
In brackets after ≈: the same amount, converted by molar mass.

Experiments:
[1] = system: Acinetobacter spp. isolates (n = 104); assay: Broth microdilution MIC, clinical isolate panel; type: cell-based; conditions: Acinetobacter spp. (n = 104)
Experimental: (§1) Comparator antibiotics were supplied by Micromyx, and stock solutions were prepared on the first day of testing using solvents recommended by CLSI (1). Stock solutions of all compounds were made at 40× the final testing concentration and stored at −80° C. prior to testing. Information regarding compound source, catalog and lot number, testing concentrations and drug diluent for the comparators and test agent are detailed below in Table 3.
(§2) The test organisms evaluated in this study consisted of clinical isolates from the Micromyx Repository and reference isolates from the American Type Culture Collection (ATCC; Manassas, Va.). The clinical isolates were obtained from USA hospitals. Upon initial receipt at Micromyx, the organisms were sub-cultured onto an appropriate agar medium. Following incubation, colonies were harvested from these plates and cell suspensions prepared and frozen at −80° C. with a cryoprotectant. Prior to testing, the isolates were streaked from frozen vials onto Trypticase Soy Agar with 5% sheep blood (Becton Dickenson [BD]; Sparks, Md.; Lot Nos. 7173618, 7166759, 7208688, 72144895, 7228505 and Remel Lenexa, Kans. Lot No. 212574). Plates were incubated at 35° C. overnight.
(§3) Mueller Hinton II broth (MHB II; BD; Lot Nos. 6258541 and 7143896) was used for MIC testing of aerobic organisms.
(§4) MIC values were determined using a broth microdilution procedure described by CLSI (1, 3). Automated liquid handlers (Multidrop 384, Labsystems, Helsinki, Finland; Biomek 2000 and Biomek FX, Beckman Coulter, Fullerton Calif.) were used to conduct serial dilutions and liquid transfers.
(§5) To prepare the drug mother plates, which would provide the serial drug dilutions for the replicate daughter plates, the wells of columns 2-12 of standard 96-well microdilution plates (Costar 3795) were filled with 150 μl of the designated diluent for each row of drug. The test articles and comparator compounds (300 μl at 40× the highest concentration to be tested) were dispensed into the appropriate wells in column 1. The Biomek 2000 was then used to make 2-fold serial dilutions in the mother plates from column 1 through column 11. The wells of Column 12 contained no drug and served as the organism growth control wells for the assay.
(§6) The daughter plates were loaded with 185 μL per well of MHB II using the Multidrop 384. The daughter plates were completed on the Biomek FX instrument which transferred 5 µL of drug solution from each well of a mother plate to the corresponding well of each daughter plate in a single step. A standardized inoculum of each test organism was prepared per CLSI methods (1). The inoculum for each organism was dispensed into sterile reservoirs divided by length (Beckman Coulter), and the Biomek 2000 was used to inoculate the plates. Daughter plates were placed on the Biomek 2000 work surface in reverse orientation so that inoculation took place from low to high drug concentration.
(§7) Plates were stacked 3-4 high, covered with a lid on the top plate, placed in plastic bags, and incubated at 35° C. for 16 to 20 hrs. Following incubation, the microplates were removed from the incubator and viewed from the bottom using a plate viewer. […] The MIC was read and recorded as the lowest concentration of drug that inhibited visible growth of the organism.
(§8) Clinical breakpoints to determine percent resistance within a given organism group were obtained from CLSI (3), with the exception of colistin for K. pneumoniae, Enterobacter spp., and E. coli, which are only available from EUCAST.

[2] = system: Escherichia coli isolates (n = 101); assay: Broth microdilution MIC, clinical isolate panel; type: cell-based; conditions: Escherichia coli (n = 101)
Experimental: as §1, §2, §3, §4, §5, §6, §7, §8

[3] = system: Klebsiella pneumoniae isolates (n = 101); assay: Broth microdilution MIC, clinical isolate panel; type: cell-based; conditions: Klebsiella pneumoniae (n = 101)
Experimental: as §1, §2, §3, §4, §5, §6, §7, §8

[4] = system: Pseudomonas aeruginosa isolates (n = 109); assay: Broth microdilution MIC, clinical isolate panel; type: cell-based
Experimental: as §1, §2, §3, §4, §5, §6, §7, §8

[5] = system: Staphylococcus aureus ATCC 29213 (MSSA; QC); assay: Broth microdilution MIC (Table 2); type: cell-based; conditions: read-out: MIC
Experimental: (§9) Each peptide was formulated in PBS buffer prior to testing. Peptides of SEQ ID NO:5 and SEQ ID NO:8 were brought up in 100% DMSO with 0.002% polysorbate-80 at 1.28 mg/mL (40× the highest final test concentration of 32 mcg/mL). Final test concentration of DMSO was 2.5% in the assay at the first dilution for those two compounds.
(§10) Mueller Hinton II broth (MHB II; BD; Lot Nos. 6258541 and 7143896) was used for MIC testing of aerobic organisms. 0.002% polysorbate 80 (P80) was added to the test medium.
as §4
as §5, with “serial peptide” for “serial drug”, “of peptide.” for “of drug.”
as §6, with “5 uL” for “5 µL”, “of peptide” for “of drug”, “CLSI methods.” for “CLSI methods (1).”, “concentration. The plates were then inoculated with 10 μL of the inoculum resulting in a final cell density of approximately 5×10^5 CFU/mL, per well.” for “concentration.”
as §7, with “peptide” for “drug”

[6] = system: Escherichia coli ATCC 25922 (QC); assay: Broth microdilution MIC (Table 2); type: cell-based; conditions: ATCC25922
Experimental: as §9, §10, §4
as §5, with “serial peptide” for “serial drug”, “of peptide.” for “of drug.”
as §6, with “5 uL” for “5 µL”, “of peptide” for “of drug”, “CLSI methods.” for “CLSI methods (1).”, “concentration. The plates were then inoculated with 10 μL of the inoculum resulting in a final cell density of approximately 5×10^5 CFU/mL, per well.” for “concentration.”
as §7, with “peptide” for “drug”

[7] = system: Pseudomonas aeruginosa ATCC BAA-2109 (MDR); assay: Broth microdilution MIC (Table 2); type: cell-based; conditions: ATCCBAA2109
Experimental: as §9, §10, §4
as §5, with “serial peptide” for “serial drug”, “of peptide.” for “of drug.”
as §6, with “5 uL” for “5 µL”, “of peptide” for “of drug”, “CLSI methods.” for “CLSI methods (1).”, “concentration. The plates were then inoculated with 10 μL of the inoculum resulting in a final cell density of approximately 5×10^5 CFU/mL, per well.” for “concentration.”
as §7, with “peptide” for “drug”

[8] = system: Streptococcus agalactiae ATCC 13813; assay: Broth microdilution MIC (Table 2); type: cell-based; conditions: ATCC13813, read-out: MIC
Experimental: as §9, §10, §4
as §5, with “serial peptide” for “serial drug”, “of peptide.” for “of drug.”
as §6, with “5 uL” for “5 µL”, “of peptide” for “of drug”, “CLSI methods.” for “CLSI methods (1).”, “concentration. The plates were then inoculated with 10 μL of the inoculum resulting in a final cell density of approximately 5×10^5 CFU/mL, per well.” for “concentration.”
as §7, with “peptide” for “drug”

[9] = system: Streptococcus pyogenes ATCC 49399; assay: Broth microdilution MIC (Table 2); type: cell-based; conditions: ATCC49399, read-out: MIC
Experimental: as §9, §10, §4
as §5, with “serial peptide” for “serial drug”, “of peptide.” for “of drug.”
as §6, with “5 uL” for “5 µL”, “of peptide” for “of drug”, “CLSI methods.” for “CLSI methods (1).”, “concentration. The plates were then inoculated with 10 μL of the inoculum resulting in a final cell density of approximately 5×10^5 CFU/mL, per well.” for “concentration.”
as §7, with “peptide” for “drug”

[10] = system: Enterococcus faecalis ATCC 29212 (VSE; QC); assay: Broth microdilution MIC (Table 2); type: cell-based; conditions: ATCC29212, read-out: MIC
Experimental: as §9, §10, §4
as §5, with “serial peptide” for “serial drug”, “of peptide.” for “of drug.”
as §6, with “5 uL” for “5 µL”, “of peptide” for “of drug”, “CLSI methods.” for “CLSI methods (1).”, “concentration. The plates were then inoculated with 10 μL of the inoculum resulting in a final cell density of approximately 5×10^5 CFU/mL, per well.” for “concentration.”
as §7, with “peptide” for “drug”

[11] = system: Acinetobacter baumannii ATCC 19606 (non-MDR); assay: Broth microdilution MIC (Table 2); type: cell-based; conditions: ATCC19606, read-out: MIC
Experimental: as §9, §10, §4
as §5, with “serial peptide” for “serial drug”, “of peptide.” for “of drug.”
as §6, with “5 uL” for “5 µL”, “of peptide” for “of drug”, “CLSI methods.” for “CLSI methods (1).”, “concentration. The plates were then inoculated with 10 μL of the inoculum resulting in a final cell density of approximately 5×10^5 CFU/mL, per well.” for “concentration.”
as §7, with “peptide” for “drug”

[12] = system: Acinetobacter baumannii ATCC BAA-1797 (MDR); assay: Broth microdilution MIC (Table 2); type: cell-based; conditions: ATCCBAA1797, read-out: MIC
Experimental: as §9, §10, §4
as §5, with “serial peptide” for “serial drug”, “of peptide.” for “of drug.”
as §6, with “5 uL” for “5 µL”, “of peptide” for “of drug”, “CLSI methods.” for “CLSI methods (1).”, “concentration. The plates were then inoculated with 10 μL of the inoculum resulting in a final cell density of approximately 5×10^5 CFU/mL, per well.” for “concentration.”
as §7, with “peptide” for “drug”

[13] = system: Escherichia coli ATCC 35218 (ESBL); assay: Broth microdilution MIC (Table 2); type: cell-based; conditions: ATCC35218
Experimental: as §9, §10, §4
as §5, with “serial peptide” for “serial drug”, “of peptide.” for “of drug.”
as §6, with “5 uL” for “5 µL”, “of peptide” for “of drug”, “CLSI methods.” for “CLSI methods (1).”, “concentration. The plates were then inoculated with 10 μL of the inoculum resulting in a final cell density of approximately 5×10^5 CFU/mL, per well.” for “concentration.”
as §7, with “peptide” for “drug”

[14] = system: Enterococcus faecalis ATCC 700802 (V583 VRE); assay: Broth microdilution MIC (Table 2); type: cell-based; conditions: read-out: MIC
Experimental: as §9, §10, §4
as §5, with “serial peptide” for “serial drug”, “of peptide.” for “of drug.”
as §6, with “5 uL” for “5 µL”, “of peptide” for “of drug”, “CLSI methods.” for “CLSI methods (1).”, “concentration. The plates were then inoculated with 10 μL of the inoculum resulting in a final cell density of approximately 5×10^5 CFU/mL, per well.” for “concentration.”
as §7, with “peptide” for “drug”

[15] = system: Pseudomonas aeruginosa ATCC 27853 (non-MDR; QC); assay: Broth microdilution MIC (Table 2); type: cell-based; conditions: ATCC27853, read-out: MIC
Experimental: as §9, §10, §4
as §5, with “serial peptide” for “serial drug”, “of peptide.” for “of drug.”
as §6, with “5 uL” for “5 µL”, “of peptide” for “of drug”, “CLSI methods.” for “CLSI methods (1).”, “concentration. The plates were then inoculated with 10 μL of the inoculum resulting in a final cell density of approximately 5×10^5 CFU/mL, per well.” for “concentration.”
as §7, with “peptide” for “drug”

[16] = system: Enterobacter spp. isolates (n = 102); assay: Broth microdilution MIC, clinical isolate panel; type: cell-based, Enterobacter aerogenes and E. cloacae; conditions: Enterobacter spp. (n = 102)
Experimental: as §1, §2, §3, §4, §5
The daughter plates were loaded with 185 μL per well of MHB II using the Multidrop 384. The daughter plates were completed on the Biomek FX instrument which transferred 5 µL of drug solution from each well of a mother plate to the corresponding well of each daughter plate in a single step. […]
Plates were stacked 3-4 high, covered with a lid on the top plate, placed in plastic bags, and incubated at 35° C. for 16 to 20 hrs. […] The MIC was read and recorded as the lowest concentration of drug that inhibited visible growth of the organism. […]

Question: What does the source list for `C[C@@H](O)[C@H]1C(=O)N2C(C(=O)O)=C(S[C@@H]3CN[C@H](C(=O)N(C)C)C3)[C@H](C)[C@H]12` [Meropenem]?
Answer: MIC50 [1]: > 8 µg/mL; MIC90 [1]: > 8 µg/mL; MIC ([1]; read-out: Mode (MIC)): > 8 µg/mL; % R (percent of isolates resistant, clinical breakpoints) [2]: 1%; MIC50 [2]: 0.015 µg/mL (≈ 0.0391 µM); MIC90 [2]: 0.03 µg/mL (≈ 0.0782 µM); MIC ([2]; read-out: Mode (MIC)): 0.015 µg/mL (≈ 0.0391 µM); % R (percent of isolates resistant, clinical breakpoints) [3]: Fifty percent; MIC50 [3]: 4 µg/mL (≈ 10.4 µM); MIC90 [3]: > 8 µg/mL; MIC ([3]; read-out: Mode (MIC)): > 8 µg/mL; MIC50 ([4]; Pseudomonas aeruginosa): 0.5 µg/mL (≈ 1.3 µM); MIC90 ([4]; Pseudomonas aeruginosa): > 8 µg/mL; % R (percent of isolates resistant, clinical breakpoints) ([4]; Pseudomonas aeruginosa (n = 109)): 20%; MIC ([4]; Pseudomonas aeruginosa, read-out: Mode (MIC)): 0.25 µg/mL (≈ 0.652 µM); MIC [5]: 0.12 µg/mL (≈ 0.313 µM); MIC [6]: 0.015 µg/mL (≈ 0.0391 µM); MIC [7]: 0.015 µg/mL (≈ 0.0391 µM); MIC [8]: 0.008 µg/mL (≈ 0.0209 µM); MIC [9]: ≤ 0.004 µg/mL; MIC [10]: 4 µg/mL (≈ 10.4 µM); MIC [11]: 0.5 µg/mL (≈ 1.3 µM); MIC [12]: 0.25 µg/mL (≈ 0.652 µM); MIC [13]: 0.015 µg/mL (≈ 0.0391 µM); MIC [14]: 4 µg/mL (≈ 10.4 µM); MIC [15]: 0.25 µg/mL (≈ 0.652 µM); % R (percent of isolates resistant, clinical breakpoints) [16]: 3.9%
